Laboratory results from patent publication US9987208B2, “Elastin synthesis/regeneration promoting agent” (NISHIZAKI BIOINFORMATION RESEARCH INSTITUTE, priority 2013, dated 2018).

Key:
PKC-ε = target: T1, PKC-ε (Homo sapiens, UniProt Q02156); settings: cited from earlier work
T1 sequence (Q02156 1-737): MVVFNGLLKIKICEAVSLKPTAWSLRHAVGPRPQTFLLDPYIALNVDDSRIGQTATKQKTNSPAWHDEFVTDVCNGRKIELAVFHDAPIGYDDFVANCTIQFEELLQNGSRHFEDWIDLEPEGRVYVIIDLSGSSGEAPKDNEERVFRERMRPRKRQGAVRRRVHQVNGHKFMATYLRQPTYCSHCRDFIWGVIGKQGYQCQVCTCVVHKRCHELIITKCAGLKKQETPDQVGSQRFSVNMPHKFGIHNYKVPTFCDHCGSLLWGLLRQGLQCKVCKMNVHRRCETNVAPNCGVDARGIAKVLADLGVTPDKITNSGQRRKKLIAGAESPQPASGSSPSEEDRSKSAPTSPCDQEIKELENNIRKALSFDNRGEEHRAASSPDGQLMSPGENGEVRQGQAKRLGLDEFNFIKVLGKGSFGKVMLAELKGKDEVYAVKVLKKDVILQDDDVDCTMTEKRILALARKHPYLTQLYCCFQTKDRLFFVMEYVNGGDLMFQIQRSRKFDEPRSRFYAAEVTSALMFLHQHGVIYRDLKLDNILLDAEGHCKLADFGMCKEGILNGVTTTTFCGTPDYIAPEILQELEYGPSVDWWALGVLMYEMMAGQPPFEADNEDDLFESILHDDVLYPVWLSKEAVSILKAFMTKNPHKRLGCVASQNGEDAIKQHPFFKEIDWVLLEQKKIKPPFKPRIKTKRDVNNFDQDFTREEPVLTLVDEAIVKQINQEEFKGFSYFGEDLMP

[1] = tested on: senescence accelerated mouse; settings: cited from earlier work
hippocampus nerve cells = settings: cited from earlier work
[2] = tested on: amyloid β peptide or scopolamine-treated rat; settings: cited from earlier work
[3] = target: α7 nicotinic acetylcholine receptor (Homo sapiens, UniProt P36544); settings: α7 nicotinic acetylcholine receptor expressed in glutamatergic presynaptic cell as target; cited from earlier work
Chain of α7 nicotinic acetylcholine receptor (P36544 23-502): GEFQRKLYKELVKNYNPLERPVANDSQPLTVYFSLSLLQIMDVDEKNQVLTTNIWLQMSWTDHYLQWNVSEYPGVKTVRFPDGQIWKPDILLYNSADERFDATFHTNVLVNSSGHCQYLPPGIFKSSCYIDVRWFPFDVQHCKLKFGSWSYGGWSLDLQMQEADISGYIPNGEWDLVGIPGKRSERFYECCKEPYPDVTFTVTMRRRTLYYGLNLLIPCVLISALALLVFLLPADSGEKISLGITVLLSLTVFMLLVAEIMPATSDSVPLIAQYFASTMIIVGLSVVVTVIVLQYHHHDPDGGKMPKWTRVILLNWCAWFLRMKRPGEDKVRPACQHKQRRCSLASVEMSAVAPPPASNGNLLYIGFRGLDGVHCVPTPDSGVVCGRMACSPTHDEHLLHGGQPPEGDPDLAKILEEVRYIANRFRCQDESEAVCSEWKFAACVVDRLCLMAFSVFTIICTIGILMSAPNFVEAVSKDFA

fibrin-5 = assay: Western blotting of fibrin-5 secreted into culture medium; type: cell-based, human; settings: DCP-LA 100 nM, 0-24 hr, FIG. 3
Procedure: (§1) Normal human fibroblast was purchased from Lonza (Verviers, Belgium). The cells were cultured in FGM™-2 BulletKit™ (Lonza) at 5% CO2 and 95% air under wet atmosphere at 37° C.
The cultured normal human skin fibroblast was treated with DCP-LA (100 nM) for 0-24 hr, and the culture medium was recovered. After precipitation with 5% (w/v) trichloroacetic acid, protein was separated by sodium dodecyl sulfate-polyacrylamide electrophoresis (SDS-PAGE) using TGX gel (BioRad, Hercules, Calif., USA) and transferred on a polyvinylidene difluoride membrane. The blotting membrane was blocked with TBS-T [150 mM NaCl, 0.1% (v/v) Tween20 and 20 mM Tris, pH 7.5] containing 5% (w/v) BSA, and reacted with anti-fibrin-5 antibody (Sigma, St Louis, Mo., USA). After washing, the membrane was reacted with horseradish peroxidase-conjugated goat anti-rabbit IgG antibody. The immune reactivity was detected by ECL kit (GE Healthcare, Piscataway, N.J., USA), and visualized using a chemiluminescence detection system (GE Healthcare). The protein concentration of each sample was measured using a BCA protein assay kit (Thermo Fisher Scientific, Waltham, Mass., USA).

[4] = tested on: normal human skin fibroblast; assay: Immunocytological measurement of elastin fiber in fibroblasts with or without SNP; type: cell-based; settings: DCP-LA 100 nM, FIG. 1
Procedure: as §1
In the presence or absence of DCP-LA (100 nM), normal human skin fibroblasts were treated with sodium nitroprusside (SNP) (1 mM). Then, the cells were fixed with methanol at −20° C. for 30 min, and blocked with 2% (w/v) bovine serum albumin-containing phosphate buffered saline (PBS) at room temperature. The cells were reacted with an anti-elastin antibody (1:100) (Millipore, Temecula, Calif., USA) at 4° C. overnight, and then reacted with an Alexa488-conjugated goat anti-mouse IgG antibody (Molecular Probes, Eugene, Oreg., USA) at room temperature for 1 hr. After staining with 4′,6-diamidino-2-phenylindole (DAPI), the fluorescence-labeled cells were visualized with a confocal scanning laser microscope (Axiovert/LSM510; Carl Zeiss, Oberkochen, Germany). The fluorescence signal intensity of the elastin fiber was analyzed using ImageJ (Bethesda, Md., USA). The intensity of the elastin fiber was standardized by the intensity of DAPI.

nerve cell = settings: cited from earlier work
HR-1 hairless mice = assay: Immunohistological measurement of elastin fiber in UV-irradiated mouse back skin; type: in vivo; settings: DCP-LA 1 mg/ml in PEG applied to back skin once per day, UV for 2 weeks, FIG. 2
Procedure: Male HR-1 hairless mice (7- to 8-week-old) were purchased from Japan SLC. Inc. (Shizuoka, Japan). The mice were reared in a chamber at controlled temperature in a cycle of 12 hr light conditions/12 hr dark conditions.
The mice were transferred to a special cage provided with a UV light on the roof and reared therein. UV light was continuously irradiated on the back skin at a distance of 12 cm for the whole 2 weeks.
During UV irradiation, DCP-LA (1 mg/ml) diluted with polyethylene glycol (PEG) was applied to the skin of the back of the mouse once per day.
The mice were sacrificed, a skin block was mounted on OTC (optimal cutting temperature compound), and cut out in about 10 μm thickness by a cryostat. A section was blocked with 5% (v/v) goat serum in PBS-Triton X-100 for 1 hr. Then, the section was incubated with an anti-elastin mouse monoclonal antibody (1:2000) (Millipore), which is the primary antibody, at 4° C. overnight, and then incubated with a goat anti-mouse IgG antibody (1:500) (Invitrogen, Carlsbad, Calif., USA) which is the secondary antibody, for 1 hr at room temperature. After staining with DAPI, the section was visualized with a confocal scanning laser microscope (Axiovert/LSM510; Carl Zeiss). The fluorescence signal intensity of the elastin fiber was quantified by NIH image. The intensity of the elastin fiber was standardized by the intensity of DAPI.

CCCCCC1CC1CC1CC1CCCCCCCC(=O)O (stereo not shown) [DCP-LA, 8-[2-(2-Pentyl-cyclopropylmethyl)-cyclopropyl]-octanoic acid]
PKC-ε activation (PKC-ε): activates PKC-ε selectively and directly | cognitive dysfunction [1]: improves cognitive dysfunction of senescence accelerated mouse | release of γ aminobutyric acid (hippocampus nerve cells): increases release of γ aminobutyric acid from hippocampus nerve cells | cognitive dysfunction [2]: improves cognitive dysfunction of amyloid β peptide or scopolamine-treated rat | hippocampal synaptic transmission [3]: promotes hippocampal synaptic transmission | secretion amount of fibrin-5 (fibrin-5): increased the secretion amount of fibrin-5 | regeneration against elastin degeneration induced by NO stress (relative density of elastin fiber relative to DAPI) ([4]; SNP 1 mM for 12 hr): promote regeneration against elastin degeneration induced by NO stress | elastin synthesis (relative density of elastin fiber relative to the DAPI density) ([4]; untreated with SNP): promote elastin synthesis | nerve cell death induced by oxidative stress (nerve cell): suppress nerve cell death induced by oxidative stress | protection against elastin disorder caused by UV irradiation (relative density of elastin fiber relative to DAPI) (HR-1 hairless mice): protecting action against elastin disorder (elastin deterioration) caused by UV irradiation
